Reference: PubChem BioAssay AID1963427 (Molecular Pharmacology Branch, DTP, NCI, 2024)

System: 317291-083-R-J1-PDC complex spheroid growth
Experiment: Anticancer human tumor 317291-083-R-J1-PDC patient-derived soft tissue sarcoma cell line growth inhibition [Asc]
Conditions: for IC50: curve of first compound; for viability, T/C: stronger effect = lower value
How it was run: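 Complex spheroids combining tumor cells with HUVEC endothelial cells and human MSCs, at 37 degrees C, 5% CO2; agents tested alone or combined, half-log dilutions from at or near clinical Cmax, or 10 microM if Cmax unknown.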
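Also: compound exposure lasted seven days after spheroids formed for three days.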
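For viability, T/C in this document: 100% = DMSO vehicle control wells.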

## Cn1ncnc1[C@H]1c2n[nH]c(=O)c3cc(F)cc(c23)N[C@@H]1c1ccc(F)cc1 + CNC(C)C(=O)NC1CN(S(=O)(=O)c2cccc(S(=O)(=O)N3CCC4CCC(C(=O)NC(c5ccccc5)c5ccccc5)N4C(=O)C(NC(=O)C(C)NC)C3)c2)CCC2CCC(C(=O)NC(c3ccccc3)c3ccccc3)N2C1=O
Second compound 0.00316 µM
  IC50: < 0.000316 µM
Second compound 0.01 µM
  IC50: < 0.000316 µM
Second compound 0.0316 µM
  IC50: 0.0218 µM
Second compound 0.1 µM
  IC50: 0.0172 µM
Second compound 0.316 µM
  IC50: 0.00101 µM
Second compound 1 µM
  IC50: < 0.000316 µM
Second compound 0.00316 µM, first compound 0.000316 µM
  viability, T/C: 3.79%
Second compound 0.00316 µM, first compound 0.001 µM
  viability, T/C: 4.39%
Second compound 0.00316 µM, first compound 0.00316 µM
  viability, T/C: 4.26%
Second compound 0.00316 µM, first compound 0.01 µM
  viability, T/C: 4.44%
Second compound 0.00316 µM, first compound 0.0316 µM
  viability, T/C: 4.58%
Second compound 0.00316 µM, first compound 0.1 µM
  viability, T/C: 4.39%
Second compound 0.01 µM, first compound 0.000316 µM
  viability, T/C: 45.2%
Second compound 0.01 µM, first compound 0.001 µM
  viability, T/C: 37.4%
Second compound 0.01 µM, first compound 0.00316 µM
  viability, T/C: 46.9%
Second compound 0.01 µM, first compound 0.01 µM
  viability, T/C: 29.3%
Second compound 0.01 µM, first compound 0.0316 µM
  viability, T/C: 28.5%
Second compound 0.01 µM, first compound 0.1 µM
  viability, T/C: 34.5%
Second compound 0.0316 µM, first compound 0.000316 µM
  viability, T/C: 79%
Second compound 0.0316 µM, first compound 0.001 µM
  viability, T/C: 86%
Second compound 0.0316 µM, first compound 0.00316 µM
  viability, T/C: 82.5%
Second compound 0.0316 µM, first compound 0.01 µM
  viability, T/C: 57%
Second compound 0.0316 µM, first compound 0.0316 µM
  viability, T/C: 40.3%
Second compound 0.0316 µM, first compound 0.1 µM
  viability, T/C: 52.7%
Second compound 0.1 µM, first compound 0.000316 µM
  viability, T/C: 95.4%
Second compound 0.1 µM, first compound 0.001 µM
  viability, T/C: 76.5%
Second compound 0.1 µM, first compound 0.00316 µM
  viability, T/C: 60.8%
Second compound 0.1 µM, first compound 0.01 µM
  viability, T/C: 56.6%
Second compound 0.1 µM, first compound 0.0316 µM
  viability, T/C: 39.3%
Second compound 0.1 µM, first compound 0.1 µM
  viability, T/C: 50.4%
Second compound 0.316 µM, first compound 0.000316 µM
  viability, T/C: 58.8%
Second compound 0.316 µM, first compound 0.001 µM
  viability, T/C: 55.7%
Second compound 0.316 µM, first compound 0.00316 µM
  viability, T/C: 36.8%
Second compound 0.316 µM, first compound 0.01 µM
  viability, T/C: 41.6%
Second compound 0.316 µM, first compound 0.0316 µM
  viability, T/C: 28.9%
Second compound 0.316 µM, first compound 0.1 µM
  viability, T/C: 35.9%
Second compound 1 µM, first compound 0.000316 µM
  viability, T/C: 34%
Second compound 1 µM, first compound 0.001 µM
  viability, T/C: 37.4%
Second compound 1 µM, first compound 0.00316 µM
  viability, T/C: 28.1%
Second compound 1 µM, first compound 0.01 µM
  viability, T/C: 30.9%
Second compound 1 µM, first compound 0.0316 µM
  viability, T/C: 29.2%
Second compound 1 µM, first compound 0.1 µM
  viability, T/C: 22.3%

## Cc1nc(N2CCC3(CC2)COC(C)C3N)c(CO)nc1Sc1ccnc(N)c1Cl (stereo unspecified) + CNC(C)C(=O)NC1CN(S(=O)(=O)c2cccc(S(=O)(=O)N3CCC4CCC(C(=O)NC(c5ccccc5)c5ccccc5)N4C(=O)C(NC(=O)C(C)NC)C3)c2)CCC2CCC(C(=O)NC(c3ccccc3)c3ccccc3)N2C1=O
Second compound 0.00316 µM
  IC50: 2.21 µM
Second compound 0.01 µM
  IC50: 1.15 µM
Second compound 0.0316 µM
  IC50: 1.96 µM
Second compound 0.1 µM
  IC50: 0.0893 µM
Second compound 0.316 µM
  IC50: < 0.00949 µM
Second compound 1 µM
  IC50: < 0.00949 µM
Second compound 0.00316 µM, first compound 0.00949 µM
  viability, T/C: 93.4%
Second compound 0.00316 µM, first compound 0.03 µM
  viability, T/C: 70.8%
Second compound 0.00316 µM, first compound 0.0949 µM
  viability, T/C: 80.5%
Second compound 0.00316 µM, first compound 0.3 µM
  viability, T/C: 66.7%
Second compound 0.00316 µM, first compound 0.949 µM
  viability, T/C: 70.2%
Second compound 0.00316 µM, first compound 3 µM
  viability, T/C: 41.9%
Second compound 0.01 µM, first compound 0.00949 µM
  viability, T/C: 75.5%
Second compound 0.01 µM, first compound 0.03 µM
  viability, T/C: 90.1%
Second compound 0.01 µM, first compound 0.0949 µM
  viability, T/C: 67.8%
Second compound 0.01 µM, first compound 0.3 µM
  viability, T/C: 70%
Second compound 0.01 µM, first compound 0.949 µM
  viability, T/C: 52.2%
Second compound 0.01 µM, first compound 3 µM
  viability, T/C: 36.2%
Second compound 0.0316 µM, first compound 0.00949 µM
  viability, T/C: 65.2%
Second compound 0.0316 µM, first compound 0.03 µM
  viability, T/C: 72.8%
Second compound 0.0316 µM, first compound 0.0949 µM
  viability, T/C: 71.3%
Second compound 0.0316 µM, first compound 0.3 µM
  viability, T/C: 63.8%
Second compound 0.0316 µM, first compound 0.949 µM
  viability, T/C: 53.2%
Second compound 0.0316 µM, first compound 3 µM
  viability, T/C: 47.2%
Second compound 0.1 µM, first compound 0.00949 µM
  viability, T/C: 70.3%
Second compound 0.1 µM, first compound 0.03 µM
  viability, T/C: 51.2%
Second compound 0.1 µM, first compound 0.0949 µM
  viability, T/C: 54.1%
Second compound 0.1 µM, first compound 0.3 µM
  viability, T/C: 39.8%
Second compound 0.1 µM, first compound 0.949 µM
  viability, T/C: 39.9%
Second compound 0.1 µM, first compound 3 µM
  viability, T/C: 27.6%
Second compound 0.316 µM, first compound 0.00949 µM
  viability, T/C: 43.5%
Second compound 0.316 µM, first compound 0.03 µM
  viability, T/C: 39.8%
Second compound 0.316 µM, first compound 0.0949 µM
  viability, T/C: 38.1%
Second compound 0.316 µM, first compound 0.3 µM
  viability, T/C: 37.7%
Second compound 0.316 µM, first compound 0.949 µM
  viability, T/C: 32.4%
Second compound 0.316 µM, first compound 3 µM
  viability, T/C: 22.8%
Second compound 1 µM, first compound 0.00949 µM
  viability, T/C: 29.8%
Second compound 1 µM, first compound 0.03 µM
  viability, T/C: 22.5%
Second compound 1 µM, first compound 0.0949 µM
  viability, T/C: 29.8%
Second compound 1 µM, first compound 0.3 µM
  viability, T/C: 23.1%
Second compound 1 µM, first compound 0.949 µM
  viability, T/C: 18.5%
Second compound 1 µM, first compound 3 µM
  viability, T/C: 19.3%

## C=CC(=O)N1CCN(c2nc(=O)n(-c3c(C)ccnc3C(C)C)c3nc(-c4c(O)cccc4F)c(F)cc23)C(C)C1 (stereo unspecified) + CCN1C(C(=O)NC23CCC(C(=O)O)(CC2)CC3)C(c2cccc(Cl)c2F)C2(C(=O)Nc3cc(Cl)ccc32)C12CCCCC2
Second compound 0.00949 µM
  IC50: > 10 µM
Second compound 0.03 µM
  IC50: > 10 µM
Second compound 0.0949 µM
  IC50: > 10 µM
Second compound 0.3 µM
  IC50: > 10 µM
Second compound 0.949 µM
  IC50: > 10 µM
Second compound 3 µM
  IC50: 8.77 µM
Second compound 0.00949 µM, first compound 0.0316 µM
  viability, T/C: 94.8%
Second compound 0.00949 µM, first compound 0.1 µM
  viability, T/C: 79.8%
Second compound 0.00949 µM, first compound 0.316 µM
  viability, T/C: 85.8%
Second compound 0.00949 µM, first compound 1 µM
  viability, T/C: 92.5%
Second compound 0.00949 µM, first compound 3.16 µM
  viability, T/C: 77.6%
Second compound 0.00949 µM, first compound 10 µM
  viability, T/C: 71.8%
Second compound 0.03 µM, first compound 0.0316 µM
  viability, T/C: 90.1%
Second compound 0.03 µM, first compound 0.1 µM
  viability, T/C: 80.2%
Second compound 0.03 µM, first compound 0.316 µM
  viability, T/C: 93.2%
Second compound 0.03 µM, first compound 1 µM
  viability, T/C: 89.3%
Second compound 0.03 µM, first compound 3.16 µM
  viability, T/C: 84.8%
Second compound 0.03 µM, first compound 10 µM
  viability, T/C: 71.2%
Second compound 0.0949 µM, first compound 0.0316 µM
  viability, T/C: 101%
Second compound 0.0949 µM, first compound 0.1 µM
  viability, T/C: 93.3%
Second compound 0.0949 µM, first compound 0.316 µM
  viability, T/C: 98.6%
Second compound 0.0949 µM, first compound 1 µM
  viability, T/C: 94.7%
Second compound 0.0949 µM, first compound 3.16 µM
  viability, T/C: 84%
Second compound 0.0949 µM, first compound 10 µM
  viability, T/C: 71.4%
Second compound 0.3 µM, first compound 0.0316 µM
  viability, T/C: 99.7%
Second compound 0.3 µM, first compound 0.1 µM
  viability, T/C: 81.2%
Second compound 0.3 µM, first compound 0.316 µM
  viability, T/C: 94.1%
Second compound 0.3 µM, first compound 1 µM
  viability, T/C: 93.3%
Second compound 0.3 µM, first compound 3.16 µM
  viability, T/C: 111%
Second compound 0.3 µM, first compound 10 µM
  viability, T/C: 69.2%
Second compound 0.949 µM, first compound 0.0316 µM
  viability, T/C: 85.2%
Second compound 0.949 µM, first compound 0.1 µM
  viability, T/C: 84.7%
Second compound 0.949 µM, first compound 0.316 µM
  viability, T/C: 89.2%
Second compound 0.949 µM, first compound 1 µM
  viability, T/C: 77.7%
Second compound 0.949 µM, first compound 3.16 µM
  viability, T/C: 83.3%
Second compound 0.949 µM, first compound 10 µM
  viability, T/C: 67%
Second compound 3 µM, first compound 0.0316 µM
  viability, T/C: 68.6%
Second compound 3 µM, first compound 0.1 µM
  viability, T/C: 72.6%
Second compound 3 µM, first compound 0.316 µM
  viability, T/C: 72.4%
Second compound 3 µM, first compound 1 µM
  viability, T/C: 98.5%
Second compound 3 µM, first compound 3.16 µM
  viability, T/C: 82.3%
Second compound 3 µM, first compound 10 µM
  viability, T/C: 46.3%
